Laboratory results from ChEMBL document CHEMBL3885861, “Open TG-GATES”.

Species: Rattus norvegicus
Assay: Open TG-GATES - Regimen: Daily Repeat
Type: toxicity, organism-based, Sprague-Dawley
Set-up: regimen Daily Repeat, gender Male, age 6 weeks
Settings: in vivo, po, 0 mg/kg, route gavage, dose level Control; for APTT / Bas / Eos / Fbg / Hb / Ht / Lym / MCH / MCHC / MCV / Mono / Neu / PT / Plat / RBC / Ret / WBC: tissue Blood; for KIDNEY_L / KIDNEY_R / KIDNEY_TOTAL: tissue Kidney; for LIVER: tissue Liver; for A/G / ALP / ALT / AST / BUN / CRE / Ca / Cl / DBIL / GLC / IP / K / LDH / Na / PL / RALB / TBIL / TC / TG / TP / gamma-GTP: tissue Plasma

CC(CN1c2ccccc2Sc2ccccc21)N(C)C (configuration not stated) [PROMETHAZINE]
TERMINAL_BW (72 h, time 3 day): 230.6 g | APTT (72 h, time 3 day): 22.8 s | Bas (72 h, time 3 day): 0% | Eos (72 h, time 3 day): 1% | Fbg (72 h, time 3 day): 309 mg/dL | Hb (72 h, time 3 day): 13.2 g/dL | Ht (72 h, time 3 day): 40.1% | Lym (72 h, time 3 day): 81.2% | MCH (72 h, time 3 day): 20.4 pg | MCHC (72 h, time 3 day): 33% | MCV (72 h, time 3 day): 61.9 fL | Mono (72 h, time 3 day): 2.8% | Neu (72 h, time 3 day): 14.5% | PT (72 h, time 3 day): 16.1 s | Plat (72 h, time 3 day): 117 x10_4/uL | RBC (72 h, time 3 day): 647.8 x10_4/ul | Ret (72 h, time 3 day): 6% | WBC (72 h, time 3 day): 94 x10_2/uL | KIDNEY_L (72 h, time 3 day): 1 g | KIDNEY_R (72 h, time 3 day): 1.1 g | KIDNEY_TOTAL (72 h, time 3 day): 2.1 g | LIVER (72 h, time 3 day): 11.1 g | A/G (72 h, time 3 day): 1.3 | ALP (72 h, time 3 day): 1577 IU/L | ALT (72 h, time 3 day): 40 IU/L | AST (72 h, time 3 day): 71.8 IU/L | BUN (72 h, time 3 day): 17 mg/dL | CRE (72 h, time 3 day): 0.2 mg/dL | Ca (72 h, time 3 day): 10.5 mg/dL | Cl (72 h, time 3 day): 105.2 meq/L | DBIL (72 h, time 3 day): 0 mg/dL | GLC (72 h, time 3 day): 195.2 mg/dL | IP (72 h, time 3 day): 6.8 mg/dL | K (72 h, time 3 day): 4.6 meq/L | LDH (72 h, time 3 day): 177 IU/L | Na (72 h, time 3 day): 141.2 meq/L | PL (72 h, time 3 day): 161 mg/dL | RALB (72 h, time 3 day): 3.1 g/dL | TBIL (72 h, time 3 day): 0.005 mg/dL | TC (72 h, time 3 day): 86.8 mg/dL | TG (72 h, time 3 day): 109.8 mg/dL | TP (72 h, time 3 day): 5.5 g/dL | gamma-GTP (72 h, time 3 day): 1.8 IU/L | TERMINAL_BW ([…], time 7 day): 267.8 g | TERMINAL_BW ([…], time 14 day): 326 g | TERMINAL_BW ([…], time 28 day): 402.8 g | APTT ([…], time 7 day): 22.2 s | Bas ([…], time 7 day): 0% | Eos ([…], time 7 day): 0.8% | Fbg ([…], time 7 day): 293.8 mg/dL | Hb ([…], time 7 day): 12.9 g/dL | Ht ([…], time 7 day): 39.1% | Lym ([…], time 7 day): 84.2% | MCH ([…], time 7 day): 20.4 pg | MCHC ([…], time 7 day): 33% | MCV ([…], time 7 day): 61.7 fL | Mono ([…], time 7 day): 2.2% | Neu ([…], time 7 day): 12.2% | PT ([…], time 7 day): 16.3 s | Plat ([…], time 7 day): 105 x10_4/uL | RBC ([…], time 7 day): 633.4 x10_4/ul | Ret ([…], time 7 day): 6.3% | WBC ([…], time 7 day): 131.7 x10_2/uL | APTT ([…], time 14 day): 23.3 s | Bas ([…], time 14 day): 0% | Eos ([…], time 14 day): 1% | Fbg ([…], time 14 day): 317.8 mg/dL | Hb ([…], time 14 day): 14.1 g/dL | Ht ([…], time 14 day): 41.4% | Lym ([…], time 14 day): 80.2% | MCH ([…], time 14 day): 20.7 pg | MCHC ([…], time 14 day): 34% | MCV ([…], time 14 day): 60.8 fL | Mono ([…], time 14 day): 2% | Neu ([…], time 14 day): 15.8% | PT ([…], time 14 day): 16 s | Plat ([…], time 14 day): 114.3 x10_4/uL | RBC ([…], time 14 day): 681 x10_4/ul | Ret ([…], time 14 day): 5.1% | WBC ([…], time 14 day): 127.7 x10_2/uL | APTT ([…], time 28 day): 22.7 s | Bas ([…], time 28 day): 0% | Eos ([…], time 28 day): 0.8% | Fbg ([…], time 28 day): 341.8 mg/dL | Hb ([…], time 28 day): 15.1 g/dL | Ht ([…], time 28 day): 43.8% | Lym ([…], time 28 day): 80.2% | MCH ([…], time 28 day): 19.9 pg | MCHC ([…], time 28 day): 34.6% | MCV ([…], time 28 day): 57.7 fL | Mono ([…], time 28 day): 1.8% | Neu ([…], time 28 day): 16.4% | PT ([…], time 28 day): 16.4 s | Plat ([…], time 28 day): 101.8 x10_4/uL | RBC ([…], time 28 day): 760.2 x10_4/ul | Ret ([…], time 28 day): 2.9% | WBC ([…], time 28 day): 124 x10_2/uL | KIDNEY_L ([…], time 7 day): 1.2 g | KIDNEY_R ([…], time 7 day): 1.2 g | KIDNEY_TOTAL ([…], time 7 day): 2.3 g | KIDNEY_L ([…], time 14 day): 1.2 g | KIDNEY_R ([…], time 14 day): 1.2 g | KIDNEY_TOTAL ([…], time 14 day): 2.5 g | KIDNEY_L ([…], time 28 day): 1.4 g | KIDNEY_R ([…], time 28 day): 1.4 g | KIDNEY_TOTAL ([…], time 28 day): 2.8 g | LIVER ([…], time 7 day): 12.3 g | LIVER ([…], time 14 day): 15.1 g | LIVER ([…], time 28 day): 16.9 g | A/G ([…], time 7 day): 1.3 | ALP ([…], time 7 day): 1379.8 IU/L | ALT ([…], time 7 day): 42.2 IU/L | AST ([…], time 7 day): 73.2 IU/L | BUN ([…], time 7 day): 17.6 mg/dL | CRE ([…], time 7 day): 0.2 mg/dL | Ca ([…], time 7 day): 10.7 mg/dL | Cl ([…], time 7 day): 104.6 meq/L | DBIL ([…], time 7 day): 0 mg/dL | GLC ([…], time 7 day): 205.2 mg/dL | IP ([…], time 7 day): 7.7 mg/dL | K ([…], time 7 day): 4.6 meq/L | LDH ([…], time 7 day): 212.4 IU/L | Na ([…], time 7 day): 141.2 meq/L | PL ([…], time 7 day): 133.6 mg/dL | RALB ([…], time 7 day): 3.1 g/dL | TBIL ([…], time 7 day): 0.012 mg/dL | TC ([…], time 7 day): 64.4 mg/dL | TG ([…], time 7 day): 89.4 mg/dL | TP ([…], time 7 day): 5.4 g/dL | gamma-GTP ([…], time 7 day): 2 IU/L | A/G ([…], time 14 day): 1.2 | ALP ([…], time 14 day): 1370.6 IU/L | ALT ([…], time 14 day): 40 IU/L | AST ([…], time 14 day): 70.4 IU/L | BUN ([…], time 14 day): 18.8 mg/dL | CRE ([…], time 14 day): 0.2 mg/dL | Ca ([…], time 14 day): 10.8 mg/dL | Cl ([…], time 14 day): 105.4 meq/L | DBIL ([…], time 14 day): 0 mg/dL | GLC ([…], time 14 day): 201 mg/dL | IP ([…], time 14 day): 7 mg/dL | K ([…], time 14 day): 4.3 meq/L | LDH ([…], time 14 day): 162.6 IU/L | Na ([…], time 14 day): 142.2 meq/L | PL ([…], time 14 day): 136.8 mg/dL | RALB ([…], time 14 day): 3.2 g/dL | TBIL ([…], time 14 day): 0.002 mg/dL | TC ([…], time 14 day): 66 mg/dL | TG ([…], time 14 day): 133 mg/dL | TP ([…], time 14 day): 5.9 g/dL | gamma-GTP ([…], time 14 day): 3 IU/L | A/G ([…], time 28 day): 1 | ALP ([…], time 28 day): 1347.2 IU/L | ALT ([…], time 28 day): 42.4 IU/L | AST ([…], time 28 day): 66.8 IU/L | BUN ([…], time 28 day): 19.4 mg/dL | CRE ([…], time 28 day): 0.2 mg/dL | Ca ([…], time 28 day): 10.4 mg/dL | Cl ([…], time 28 day): 104.8 meq/L | DBIL ([…], time 28 day): 0 mg/dL | GLC ([…], time 28 day): 195.8 mg/dL | IP ([…], time 28 day): 6.3 mg/dL | K ([…], time 28 day): 4 meq/L | LDH ([…], time 28 day): 160.6 IU/L | Na ([…], time 28 day): 143.2 meq/L | PL ([…], time 28 day): 149 mg/dL | RALB ([…], time 28 day): 3 g/dL | TBIL ([…], time 28 day): 0.006 mg/dL | TC ([…], time 28 day): 65.8 mg/dL | TG ([…], time 28 day): 192.8 mg/dL | TP ([…], time 28 day): 6.2 g/dL | gamma-GTP ([…], time 28 day): 2.6 IU/L
